Measurements: the NIST ThermoML archive (doi:10.1021/je100083w)

Conditions: Liquid, Bellows volumetry

O [water]
Conditions	specific volume [m3/kg]
253.56 K, 298200 kPa	0.0008917
253.56 K, 325300 kPa	0.0008857
253.56 K, 349800 kPa	0.0008804
253.58 K, 223600 kPa	0.0009109
253.58 K, 223700 kPa	0.000911
253.58 K, 273300 kPa	0.0008978
253.58 K, 273600 kPa	0.0008977
253.58 K, 323500 kPa	0.000886
253.6 K, 249400 kPa	0.0009039
253.6 K, 298400 kPa	0.0008918
253.61 K, 248900 kPa	0.0009041
253.63 K, 349100 kPa	0.0008803
253.64 K, 223700 kPa	0.000911
253.64 K, 248300 kPa	0.0009041
253.65 K, 299600 kPa	0.000891
253.67 K, 349800 kPa	0.00088
253.68 K, 273300 kPa	0.0008975
253.69 K, 325300 kPa	0.0008852
253.83 K, 323300 kPa	0.0008861
253.83 K, 349500 kPa	0.0008803
253.86 K, 273400 kPa	0.0008977
253.86 K, 298200 kPa	0.0008918
253.87 K, 248600 kPa	0.0009042
253.9 K, 223600 kPa	0.000911
258.37 K, 198400 kPa	0.00092
258.37 K, 248400 kPa	0.0009059
258.38 K, 274900 kPa	0.0008992
258.4 K, 174000 kPa	0.0009274
258.41 K, 223300 kPa	0.0009127
258.45 K, 299600 kPa	0.0008933
258.46 K, 348900 kPa	0.0008821
258.52 K, 323300 kPa	0.0008877
258.52 K, 324100 kPa	0.0008879
258.53 K, 275300 kPa	0.0008991
258.54 K, 249300 kPa	0.0009057
258.54 K, 298500 kPa	0.0008935
258.55 K, 225000 kPa	0.0009123
258.58 K, 174100 kPa	0.0009275
258.58 K, 349500 kPa	0.0008815
258.59 K, 199300 kPa	0.0009197
258.59 K, 223500 kPa	0.0009124
258.6 K, 198200 kPa	0.0009199
258.6 K, 248400 kPa	0.0009053
258.6 K, 273300 kPa	0.0008992
258.6 K, 323400 kPa	0.0008873
258.6 K, 348800 kPa	0.0008828
258.61 K, 198500 kPa	0.0009196
258.61 K, 223400 kPa	0.0009121
258.61 K, 299200 kPa	0.0008928
258.64 K, 223300 kPa	0.0009126
258.64 K, 248500 kPa	0.0009056
258.65 K, 248300 kPa	0.0009047
258.65 K, 274500 kPa	0.0008977
258.65 K, 299500 kPa	0.0008914
258.66 K, 198400 kPa	0.0009199
258.67 K, 174000 kPa	0.0009274
258.68 K, 173500 kPa	0.0009277
258.68 K, 223300 kPa	0.0009118
258.7 K, 174400 kPa	0.0009274
258.75 K, 199500 kPa	0.000919
258.76 K, 173800 kPa	0.0009274
263.51 K, 299100 kPa	0.0008953
263.52 K, 350000 kPa	0.0008839
263.58 K, 298900 kPa	0.0008957
263.6 K, 249800 kPa	0.0009078
263.61 K, 248800 kPa	0.0009077
263.62 K, 149500 kPa	0.0009371
263.64 K, 198700 kPa	0.0009216
263.64 K, 248800 kPa	0.0009078
263.64 K, 298000 kPa	0.0008957
263.64 K, 349900 kPa	0.0008842
263.65 K, 198400 kPa	0.0009219
263.69 K, 149400 kPa	0.0009369
263.69 K, 198600 kPa	0.0009216
263.69 K, 349100 kPa	0.0008847
263.75 K, 149200 kPa	0.000937
268.42 K, 99500 kPa	0.0009558
268.47 K, 149200 kPa	0.0009384
268.47 K, 248700 kPa	0.0009095
268.47 K, 300200 kPa	0.000897
268.47 K, 348900 kPa	0.0008867
268.48 K, 199300 kPa	0.0009231
268.48 K, 298400 kPa	0.0008977
268.48 K, 349100 kPa	0.0008861
268.51 K, 149700 kPa	0.0009382
268.51 K, 249100 kPa	0.0009096
268.52 K, 149700 kPa	0.0009382
268.52 K, 198400 kPa	0.0009234
268.52 K, 249000 kPa	0.0009097
268.53 K, 198800 kPa	0.0009234
268.55 K, 99400 kPa	0.0009559
268.55 K, 298900 kPa	0.0008975
268.58 K, 99800 kPa	0.0009557
268.6 K, 348900 kPa	0.0008866
273.32 K, 69100 kPa	0.0009686
273.38 K, 298800 kPa	0.0008991
273.4 K, 349400 kPa	0.0008876
273.44 K, 149100 kPa	0.0009398
273.46 K, 99300 kPa	0.0009569
273.48 K, 69100 kPa	0.0009688
273.51 K, 199000 kPa	0.0009249
273.52 K, 69100 kPa	0.0009682
273.52 K, 149000 kPa	0.0009392
273.52 K, 249000 kPa	0.0009109
273.53 K, 99100 kPa	0.0009564
273.55 K, 198900 kPa	0.0009242
273.56 K, 98600 kPa	0.0009574
273.57 K, 149100 kPa	0.00094
273.57 K, 249100 kPa	0.0009117
273.63 K, 249300 kPa	0.000912
273.65 K, 298900 kPa	0.0008999
273.67 K, 199000 kPa	0.0009252
273.68 K, 348800 kPa	0.0008889
273.74 K, 298900 kPa	0.0009003
273.82 K, 350400 kPa	0.0008893
283.33 K, 199000 kPa	0.000928
283.36 K, 69000 kPa	0.0009704
283.39 K, 298700 kPa	0.0009035
283.43 K, 249000 kPa	0.000915
283.43 K, 349100 kPa	0.0008928
283.47 K, 199000 kPa	0.0009281
283.48 K, 149100 kPa	0.0009425
283.49 K, 149300 kPa	0.0009423
283.5 K, 69200 kPa	0.0009702
283.5 K, 248900 kPa	0.0009152
283.51 K, 98900 kPa	0.0009592
283.51 K, 99000 kPa	0.0009591
283.52 K, 148800 kPa	0.0009426
283.53 K, 198900 kPa	0.000928
283.54 K, 69000 kPa	0.0009703
283.54 K, 249100 kPa	0.0009148
283.56 K, 299300 kPa	0.0009032
283.6 K, 299000 kPa	0.0009038
283.62 K, 349300 kPa	0.0008926
283.7 K, 99000 kPa	0.0009592
283.72 K, 348000 kPa	0.0008941
293.2 K, 249000 kPa	0.0009188
293.22 K, 299000 kPa	0.0009073
293.23 K, 149200 kPa	0.0009458
293.25 K, 199000 kPa	0.0009316
293.28 K, 99300 kPa	0.0009619
293.31 K, 349200 kPa	0.000897
293.34 K, 349300 kPa	0.0008968
293.35 K, 69300 kPa	0.0009728
293.38 K, 299400 kPa	0.0009073
293.39 K, 199400 kPa	0.0009315
293.39 K, 249000 kPa	0.0009189
293.4 K, 99100 kPa	0.000962
293.41 K, 149100 kPa	0.0009458
293.42 K, 68900 kPa	0.0009729
293.46 K, 199100 kPa	0.0009322
293.47 K, 99200 kPa	0.0009625
293.49 K, 148800 kPa	0.0009465
293.5 K, 100 kPa	0.001002
293.52 K, 248900 kPa	0.0009196
293.53 K, 100 kPa	0.001002
293.53 K, 349200 kPa	0.0008974
293.54 K, 299000 kPa	0.000908
293.55 K, 100 kPa	0.001002
293.6 K, 69200 kPa	0.0009732
303.35 K, 98500 kPa	0.0009655
303.37 K, 69200 kPa	0.0009758
303.4 K, 98900 kPa	0.0009651
303.4 K, 148900 kPa	0.000949
303.41 K, 198900 kPa	0.0009347
303.42 K, 68900 kPa	0.0009761
303.42 K, 69800 kPa	0.0009757
303.43 K, 248900 kPa	0.000922
303.48 K, 99200 kPa	0.0009653
303.48 K, 149000 kPa	0.0009492
303.49 K, 299100 kPa	0.0009104
303.51 K, 149100 kPa	0.0009494
303.52 K, 349300 kPa	0.0008999
303.55 K, 299100 kPa	0.000911
303.56 K, 199000 kPa	0.000935
303.57 K, 198800 kPa	0.0009353
303.57 K, 248800 kPa	0.0009226
303.57 K, 249300 kPa	0.0009222
303.61 K, 299200 kPa	0.0009108
303.63 K, 349200 kPa	0.0009004
303.72 K, 349100 kPa	0.0009003
313.38 K, 149300 kPa	0.0009528
313.38 K, 349300 kPa	0.0009051
313.39 K, 69100 kPa	0.0009801
313.39 K, 98800 kPa	0.000969
313.39 K, 148800 kPa	0.0009534
313.4 K, 69100 kPa	0.0009799
313.4 K, 98600 kPa	0.0009695
313.4 K, 199200 kPa	0.0009386
313.41 K, 99000 kPa	0.0009696
313.42 K, 149000 kPa	0.0009538
313.42 K, 198900 kPa	0.0009393
313.43 K, 69000 kPa	0.0009796
313.44 K, 249300 kPa	0.0009265
313.44 K, 299600 kPa	0.0009155
313.44 K, 348900 kPa	0.000904
313.45 K, 248900 kPa	0.0009271
313.46 K, 199100 kPa	0.0009397
313.46 K, 249200 kPa	0.0009259
313.46 K, 299400 kPa	0.0009151
313.46 K, 349500 kPa	0.0009046
313.48 K, 299700 kPa	0.0009144
323.04 K, 248700 kPa	0.0009318
323.09 K, 198800 kPa	0.0009435
323.13 K, 299200 kPa	0.0009196
323.17 K, 249000 kPa	0.0009307
323.17 K, 349400 kPa	0.0009091
323.19 K, 299100 kPa	0.0009191
323.21 K, 349000 kPa	0.0009095
323.25 K, 248900 kPa	0.0009312
323.26 K, 298400 kPa	0.0009203
323.28 K, 199000 kPa	0.0009438
323.3 K, 149300 kPa	0.0009578
323.31 K, 99100 kPa	0.0009737
323.33 K, 69200 kPa	0.0009842
323.34 K, 198300 kPa	0.0009446
323.34 K, 349300 kPa	0.0009085
323.35 K, 68300 kPa	0.0009846
323.35 K, 149000 kPa	0.0009578
323.37 K, 99600 kPa	0.0009736
323.41 K, 149200 kPa	0.0009584
323.43 K, 99200 kPa	0.0009742
323.46 K, 68800 kPa	0.0009848
